Assays:
Experiment in all cases: Test E greenhouse herbicide test, pre- and postemergence
Type in all cases: in vivo
[1] = system: arrowleaf sida (Sida rhombifolia)
Method in brief: (§1)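 Scores (0–100, visual, vs controls) reflect greenhouse growth of 14 to 21 d after treatment. Application was pre-emergence to silt loam or post-emergence at the 1- to 4-leaf stage.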

[2] = system: barnyardgrass (Echinochloa crus-galli)
Method in brief: as §1

[3] = system: corn (Zea mays)
Method in brief: as §1

[4] = system: crabgrass, Brazilian (Brazilian crabgrass, Digitaria horizontalis)
Method in brief: as §1

[5] = system: dayflower (Virginia (VA) dayflower, Commelina virginica)
Method in brief: as §1

[6] = system: field bindweed (Convolvulus arvensis)
Method in brief: as §1

[7] = system: foxtail, green (green foxtail, Setaria viridis); conditions: Preemergence
Method in brief: as §1

[8] = system: goosegrass (Eleusine indica); conditions: Preemergence
Method in brief: as §1

[9] = system: horseweed (Conyza canadensis)
Method in brief: as §1

[10] = system: lambsquarters (Chenopodium album); conditions: Preemergence
Method in brief: as §1

[11] = system: nightshade (eastern black nightshade, Solanum ptycanthum); conditions: Preemergence
Method in brief: as §1

[12] = system: panicum, fall (fall panicum, Panicum dichotomiflorum)
Method in brief: as §1

[13] = system: pigweed, palmer (palmer pigweed, Amaranthus palmeri)
Method in brief: as §1

[14] = system: ragweed (common ragweed, Ambrosia elatior)
Method in brief: as §1

[15] = system: soybean (Glycine max)
Method in brief: as §1

[16] = system: surinam grass (Brachiaria decumbens); conditions: Preemergence
Method in brief: as §1

[17] = 62 g ai/ha, Postemergence, scale 0 to 100 (0 no effect, 100 complete control)
[18] = 62 g ai/ha, Preemergence, scale 0 to 100 (0 no effect, 100 complete control)
[19] = 125 g ai/ha, Postemergence, scale 0 to 100 (0 no effect, 100 complete control)
[20] = 125 g ai/ha, Preemergence, scale 0 to 100 (0 no effect, 100 complete control)
[21] = 250 g ai/ha, Postemergence, scale 0 to 100 (0 no effect, 100 complete control)
[22] = Postemergence, 31 g ai/ha, visual, scale 0 no effect to 100 complete control
[23] = Preemergence, 31 g ai/ha, scale 0 to 100, 0 no effect, 100 complete control
[24] = Preemergence, 250 g ai/ha, visual, scale 0 no effect to 100 complete control
[25] = 62 g ai/ha, scale 0 to 100 (0 no effect, 100 complete control)
[26] = 125 g ai/ha, scale 0 to 100 (0 no effect, 100 complete control)
[27] = 31 g ai/ha, scale 0 to 100, 0 no effect, 100 complete control
[28] = 250 g ai/ha, visual, scale 0 no effect to 100 complete control

CC(=O)Oc1c(C)nn(C)c(=O)c1-c1c(C)cc(C)c2ccccc12 [Compound 153]
60: Plant response rating, Arrowleaf Sida [1, 20] | Plant response rating, Goosegrass [8, 26] | Plant response rating, Pigweed, Palmer [13, 20]
80: Plant response rating, Barnyardgrass [2, 21] | Plant response rating, Dayflower, VA [5, 23] | Plant response rating, Field Bindweed [6, 22] | Plant response rating, Horseweed [9, 17] | Plant response rating, Ragweed [14, 19]
70: Plant response rating, Arrowleaf Sida [1, 18] | Plant response rating, Barnyardgrass [2, 20] | Plant response rating, Crabgrass, Brazil [4, 18] | Plant response rating, Nightshade [11, 27] | Plant response rating, Ragweed [14, 17]
50: Plant response rating, Arrowleaf Sida [1, 17] | Plant response rating, Arrowleaf Sida [1, 23] | Plant response rating, Barnyardgrass [2, 18] | Plant response rating, Barnyardgrass [2, 19] | Plant response rating, Crabgrass, Brazil [4, 21] | Plant response rating, Foxtail, Green [7, 27] | Plant response rating, Pigweed, Palmer [13, 23] | Plant response rating, Surinam Grass [16, 27]
0: Plant response rating, Corn [3, 17] | Plant response rating, Corn [3, 18] | Plant response rating, Corn [3, 19] | Plant response rating, Corn [3, 21] | Plant response rating, Corn [3, 22] | Plant response rating, Corn [3, 23] | Plant response rating, Soybean [15, 22]
25: Plant response rating, Barnyardgrass [2, 22] | Plant response rating, Soybean [15, 21]
75: Plant response rating, Arrowleaf Sida [1, 24] | Plant response rating, Foxtail, Green [7, 25] | Plant response rating, Goosegrass [8, 28] | Plant response rating, Ragweed [14, 22]
95: Plant response rating, Dayflower, VA [5, 21] | Plant response rating, Field Bindweed [6, 21] | Plant response rating, Foxtail, Green [7, 28] | Plant response rating, Nightshade [11, 26] | Plant response rating, Pigweed, Palmer [13, 24] | Plant response rating, Ragweed [14, 20]
100: Plant response rating, Crabgrass, Brazil [4, 20] | Plant response rating, Crabgrass, Brazil [4, 24] | Plant response rating, Field Bindweed [6, 18] | Plant response rating, Field Bindweed [6, 19] | Plant response rating, Field Bindweed [6, 20] | Plant response rating, Field Bindweed [6, 24] | Plant response rating, Horseweed [9, 18] | Plant response rating, Horseweed [9, 20] | Plant response rating, Horseweed [9, 24] | Plant response rating, Lambsquarters [10, 26] | Plant response rating, Lambsquarters [10, 27] | Plant response rating, Lambsquarters [10, 28] | Plant response rating, Nightshade [11, 28] | Plant response rating, Panicum, Fall [12, 20] | Plant response rating, Panicum, Fall [12, 23] | Plant response rating, Panicum, Fall [12, 24] | Plant response rating, Ragweed [14, 23] | Plant response rating, Ragweed [14, 24] | Plant response rating, Surinam Grass [16, 28]
20: Plant response rating, Barnyardgrass [2, 23] | Plant response rating, Corn [3, 24] | Plant response rating, Crabgrass, Brazil [4, 22] | Plant response rating, Pigweed, Palmer [13, 17] | Plant response rating, Pigweed, Palmer [13, 22]
30: Plant response rating, Crabgrass, Brazil [4, 17] | Plant response rating, Pigweed, Palmer [13, 19] | Plant response rating, Soybean [15, 20] | Plant response rating, Soybean [15, 23]
85: Plant response rating, Dayflower, VA [5, 18] | Plant response rating, Dayflower, VA [5, 22] | Plant response rating, Horseweed [9, 19] | Plant response rating, Horseweed [9, 21] | Plant response rating, Horseweed [9, 22] | Plant response rating, Panicum, Fall [12, 22]
40: Plant response rating, Arrowleaf Sida [1, 19] | Plant response rating, Arrowleaf Sida [1, 21] | Plant response rating, Arrowleaf Sida [1, 22] | Plant response rating, Barnyardgrass [2, 17] | Plant response rating, Crabgrass, Brazil [4, 19] | Plant response rating, Goosegrass [8, 25] | Plant response rating, Goosegrass [8, 27] | Plant response rating, Pigweed, Palmer [13, 21]
90: Plant response rating, Barnyardgrass [2, 24] | Plant response rating, Crabgrass, Brazil [4, 23] | Plant response rating, Dayflower, VA [5, 17] | Plant response rating, Dayflower, VA [5, 19] | Plant response rating, Dayflower, VA [5, 20] | Plant response rating, Dayflower, VA [5, 24] | Plant response rating, Field Bindweed [6, 17] | Plant response rating, Field Bindweed [6, 23] | Plant response rating, Foxtail, Green [7, 26] | Plant response rating, Horseweed [9, 23] | Plant response rating, Panicum, Fall [12, 17] | Plant response rating, Panicum, Fall [12, 19] | Plant response rating, Panicum, Fall [12, 21] | Plant response rating, Ragweed [14, 21] | Plant response rating, Surinam Grass [16, 26]
10: Plant response rating, Corn [3, 20] | Plant response rating, Soybean [15, 19]
